From US20230122344A1, “ANTAGONISTS OF THE MUSCARINIC ACETYLCHOLINE RECEPTOR M4” (Vanderbilt University, priority 2019, published 2023) come the findings set out here.

Molecules are shown by their SMILES.

In the experiment the target is T1, Human M4 (Homo sapiens, UniProt P08173).
T1 construct: expressed in transfected cells; host or cells: CHO-K1 (ATCC), co-transfected with chimeric G protein Gqi5
T1 sequence (P08173 1-479): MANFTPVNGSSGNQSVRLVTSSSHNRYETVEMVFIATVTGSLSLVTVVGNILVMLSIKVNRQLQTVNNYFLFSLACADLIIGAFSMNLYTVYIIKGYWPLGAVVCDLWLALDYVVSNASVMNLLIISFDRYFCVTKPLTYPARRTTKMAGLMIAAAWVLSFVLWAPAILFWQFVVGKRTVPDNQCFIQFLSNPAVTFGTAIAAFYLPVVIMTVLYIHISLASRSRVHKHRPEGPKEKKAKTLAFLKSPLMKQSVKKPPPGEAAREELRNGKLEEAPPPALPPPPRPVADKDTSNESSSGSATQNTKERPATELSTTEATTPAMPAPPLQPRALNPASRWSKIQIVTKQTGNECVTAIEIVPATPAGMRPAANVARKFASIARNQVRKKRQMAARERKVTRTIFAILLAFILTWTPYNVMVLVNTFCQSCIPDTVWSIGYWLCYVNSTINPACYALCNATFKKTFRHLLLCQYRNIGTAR
Description: mAChR M4 cell-based functional assay (calcium flux, antagonism of EC80 acetylcholine response). Conditions: M4/Gqi5/CHO-K1 cells; for remaining activity at 30 µM: CHO-K1, % ACh maximum at 30 μM, read-out: Human M4 Emin; for IC50: decrease of response elicited by EC80 acetylcholine; for Human M4 Emin: % ACh maximum at 30 μM. As to the method:
Human or rat M4 cDNA, along with the chimeric G protein Gqi5, were transfected into Chinese hamster ovary (CHO-K1) cells purchased from the American Type Culture Collection using Lipofectamine2000. M4/Gqi5/CHO cells were grown in Ham's F-12 medium containing 10% heat-inactivated fetal bovine serum (FBS), 20 mM HEPES, 500 μg/mL G418 sulfate, and 200 μg/mL Hygromycin B.
For high throughput measurement of agonist-evoked increases in intracellular calcium, CHO-K1 cells stably expressing muscarinic receptors were plated in growth medium lacking G418 and hygromycin at 15,000 cells/20 μL/well in Greiner 384-well black-walled, tissue culture (TC)-treated, clear-bottom plates (VWR). Cells were incubated overnight at 37° C. and 5% CO2. The next day, cells were washed using an ELX 405 (BioTek) with assay buffer; the final volume was then aspirated to 20 μL. Next, 20 μL of a 2.3 μM stock of Fluo-4/acetoxymethyl ester (Invitrogen, Carlsbad, Calif.), prepared as a 2.3 mM stock in DMSO and mixed in a 1:1 ratio with 10% (w/v) Pluronic F-127 and diluted in assay buffer, was added to the wells and the cell plates were incubated for 50 min at 37° C. and 5% CO2. Dye was removed by washing with the ELX 405 and the final volume was aspirated to 20 μL. Compound master plates were formatted in a 10 point concentration-response curve (CRC) format (1:3 dilutions) in 100% DMSO with a starting concentration of 10 or 1 mM using a BRAVO liquid handler (Agilent). Test compound CRCs were then transferred to daughter plates (240 nL) using the Echo acoustic plate reformatter (Labcyte, Sunnyvale, Calif.) and then diluted into assay buffer (40 μL) to a 2× stock using a Thermo Fisher Combi (Thermo Fisher Scientific, Waltham, Mass.).
Calcium flux was measured using the Functional Drug Screening System (FDSS) 6000 or 7000 (Hamamatsu Corporation, Tokyo, Japan) as an increase in the fluorescent static ratio. Compounds were applied to cells (20 μL, 2×) using the automated system of the FDSS at 2 seconds into the protocol and the data were collected at 1 Hz. At 143 s, 10 μL of an EC20 concentration of the muscarinic receptor agonist acetylcholine was added (5×), followed by the addition of 12 μL of an EC80 concentration of acetylcholine at the 268 s time point (5×). Agonist activity was analyzed as a concentration-dependent increase in calcium mobilization upon compound addition. Positive allosteric modulator activity was analyzed as a concentration-dependent increase in the EC20 acetylcholine response. Antagonist activity was analyzed as a concentration-dependent decrease in the EC80 acetylcholine response; for the purposes of the tables herein, an IC50 (inhibitory concentration 50) was calculated as a concentration-dependent decrease of the response elicited by an EC80 concentration of acetylcholine. Concentration-response curves were generated using a four-parameter logistical equation in XLFit curve fitting software (IDBS, Bridgewater, N.J.) for Excel (Microsoft, Redmond, Wash.) or Prism (GraphPad Software, Inc., San Diego, Calif.) or the Dotmatics software platform (Dotmatics, Bishop's Stortford, UK).
Compounds were synthesized as described above. Activity (IC50 and Emin) was determined in the mAChR M4 cell-based functional assay as described above and the data are shown in Table 2.
In general terms: Calcium assays in cells follow changes in intracellular calcium, usually with a dye or a luminescent sensor.

On to `Fc1cc(F)c(F)c(-c2nnc(N[C@H]3C[C@@H]4CN(CC5CCCCO5)C[C@@H]4C3)cc2C(F)F)c1` (single isomer, unassigned) [compound 46], for which the remaining activity at 30 µM is 3% and the IC50 came out at 1.98 nM.
As to `Fc1cc(F)c(F)c(-c2nnc(N[C@H]3C[C@@H]4CN(CC5CCCCO5)C[C@@H]4C3)cc2C(F)F)c1` (single isomer, unassigned) [compound 47], the “Human M4 Emin” value worked out at 2% and the IC50 turned out to be 2.02 nM.
In the case of `Fc1cc(F)c(F)c(-c2nnc(N[C@H]3C[C@@H]4CN(CC5CCCOC5)C[C@@H]4C3)cc2C(F)F)c1` (single isomer, unassigned) [compound 48], the remaining activity at 30 µM was found to be 2% and the IC50 is 1.3 nM.
With `Fc1cc(F)c(F)c(-c2nnc(N[C@H]3C[C@@H]4CN(CC5CCCOC5)C[C@@H]4C3)cc2C(F)F)c1` (single isomer, unassigned) [compound 49], the “Human M4 Emin” value is recorded as 2% and the IC50 is 1.64 nM.
Take `COc1cc(-c2cccc(F)c2)nnc1N[C@H]1C[C@@H]2CN(CC3CCOCC3)C[C@@H]2C1` [compound 1, (3aR,5s,6aS)-N-(6-(3-fluorophenyl)-4-methoxypyridazin-3-yl)-2-((tetrahydro-2H-pyran-4-yl)methyl)octahydrocyclopenta[c]pyrrol-5-amine]: the remaining activity at 30 µM was determined as 5% and the IC50 worked out at 10.8 nM.
Consider `COc1cc(-c2ccccc2F)nnc1N[C@H]1C[C@@H]2CN(CC3CCOCC3)C[C@@H]2C1` [compound 2, (3aR,5s,6aS)-N-(6-(2-fluorophenyl)-4-methoxypyridazin-3-yl)-2-((tetrahydro-2H-pyran-4-yl)methyl)octahydrocyclopenta[c]pyrrol-5-amine], for which the remaining activity at 30 µM worked out at 3% and the IC50 amounted to 10.5 nM.
The matching figures for `COc1cc(-c2ccc(F)cc2)nnc1N[C@H]1C[C@@H]2CN(CC3CCOCC3)C[C@@H]2C1` [compound 3, (3aR,5s,6aS)-N-(6-(4-fluorophenyl)-4-methoxypyridazin-3-yl)-2-((tetrahydro-2H-pyran-4-yl)methyl)octahydrocyclopenta[c]pyrrol-5-amine]: 5% and 48.4 nM.
Consider `COc1cc(-c2cc(F)ccc2F)nnc1N[C@H]1C[C@@H]2CN(CC3CCOCC3)C[C@@H]2C1` [compound 4, (3aR,5s,6aS)-N-(6-(2,5-difluorophenyl)-4-methoxypyridazin-3-yl)-2-((tetrahydro-2H-pyran-4-yl)methyl)octahydrocyclopenta[c]pyrrol-5-amine], for which the remaining activity at 30 µM was determined as 3% and the IC50 stood at 12 nM.
For `COc1cc(-c2ccc3nn(C)cc3c2)nnc1N[C@H]1C[C@@H]2CN(CC3CCOCC3)C[C@@H]2C1` [compound 5, (3aR,5s,6aS)-N-(4-methoxy-6-(2-methyl-2H-indazol-5-yl)pyridazin-3-yl)-2-((tetrahydro-2H-pyran-4-yl)methyl)octahydrocyclopenta[c]pyrrol-5-amine] the same measures were 3% and 3.89 nM.
For `COc1cc(-c2cc3cn(C)nc3cc2F)nnc1N[C@H]1C[C@@H]2CN(CC3CCOCC3)C[C@@H]2C1` [compound 6, (3aR,5s,6aS)-N-(6-(6-fluoro-2-methyl-2H-indazol-5-yl)-4-methoxypyridazin-3-yl)-2-((tetrahydro-2H-pyran-4-yl)methyl)octahydrocyclopenta[c]pyrrol-5-amine] the same measures were 4% and 44 nM.
For `COc1cc(-c2cc(F)ccc2C)nnc1N[C@H]1C[C@@H]2CN(CC3CCOCC3)C[C@@H]2C1` [compound 7, (3aR,5s,6aS)-N-(6-(5-fluoro-2-methylphenyl)-4-methoxypyridazin-3-yl)-2-((tetrahydro-2H-pyran-4-yl)methyl)octahydrocyclopenta[c]pyrrol-5-amine] the same measures were 9% and 6.84 nM.
`COc1cc(-c2ccc3nn(C)cc3c2C)nnc1N[C@H]1C[C@@H]2CN(CC3CCOCC3)C[C@@H]2C1` [compound 8, (3aR,5s,6aS)-N-(6-(2,4-dimethyl-2H-indazol-5-yl)-4-methoxypyridazin-3-yl)-2-((tetrahydro-2H-pyran-4-yl)methyl)octahydrocyclopenta[c]pyrrol-5-amine]: the remaining activity at 30 µM was 4% and the IC50 was 2.04 nM.
For `Cc1ccc(F)cc1-c1cc(S(C)(=O)=O)c(N[C@H]2C[C@@H]3CN(CC4CCOCC4)C[C@@H]3C2)nn1` [compound 9, (3aR,5s,6aS)-N-(6-(5-fluoro-2-methylphenyl)-4-(methylsulfonyl)pyridazin-3-yl)-2-((tetrahydro-2H-pyran-4-yl)methyl)octahydrocyclopenta[c]pyrrol-5-amine] the same measures were 3% and 18.4 nM.
For `Cc1ccc(F)cc1-c1cc(-c2cc(F)ccc2C)c(N[C@H]2C[C@@H]3CN(CC4CCOCC4)C[C@@H]3C2)nn1` [compound 10, (3aR,5s,6aS)-N-(4,6-bis(5-fluoro-2-methylphenyl)pyridazin-3-yl)-2-((tetrahydro-2H-pyran-4-yl)methyl)octahydrocyclopenta[c]pyrrol-5-amine] the same measures were 3% and 384 nM.
For `[2H]C([2H])(C1CCOCC1)N1C[C@H]2C[C@H](Nc3nnc(-c4cc(F)ccc4F)cc3C)C[C@H]2C1` [compound 11, (3aR,5s,6aS)-N-(6-(2,5-difluorophenyl)-4-methylpyridazin-3-yl)-2-((tetrahydro-2H-pyran-4-yl)methyl-d2)octahydrocyclopenta[c]pyrrol-5-amine] the same measures were 3% and 1 nM.
For the compound `Cc1ccc(F)cc1-c1nnc(N[C@H]2C[C@@H]3CN(CC4CCOCC4)C[C@@H]3C2)cc1C` [compound 12, (3aR,5s,6aS)-N-(6-(5-fluoro-2-methylphenyl)-5-methylpyridazin-3-yl)-2-((tetrahydro-2H-pyran-4-yl)methyl)octahydrocyclopenta[c]pyrrol-5-amine], the remaining activity at 30 µM stood at 2% and the IC50 was found to be 2.55 nM.
For `Cc1cc(N[C@H]2C[C@@H]3CN(CC4CCOCC4)C[C@@H]3C2)nnc1-c1cc(F)ccc1F` [compound 13, (3aR,5s,6aS)-N-(6-(2,5-difluorophenyl)-5-methylpyridazin-3-yl)-2-((tetrahydro-2H-pyran-4-yl)methyl)octahydrocyclopenta[c]pyrrol-5-amine] the same measures were 5% and 0.14 nM.
The matching figures for `Cc1cc(N[C@H]2C[C@@H]3CN(CC4CCOCC4)C[C@@H]3C2)nnc1-c1cc(F)ccc1Cl` [compound 14, (3aR,5s,6aS)-N-(6-(2-chloro-5-fluorophenyl)-5-methylpyridazin-3-yl)-2-((tetrahydro-2H-pyran-4-yl)methyl)octahydrocyclopenta[c]pyrrol-5-amine]: 3% and 2.36 nM.

One may read the IC50 as the concentration that gives 50% inhibition.
